# Measured values from patent US9145351B2, “Azole derivatives, methods for producing the same, intermediate thereof, agro-horticultural agents” (KUREHA CORPORATION, priority 2009, dated 2015).
# Assays:
# Type in all cases: cell-based
# Sclerotinia sclerotiorum = test: Plate medium fungicidal assay, Sclerotinia rot S.s (Experimental Example 5); settings: Sclerotinia sclerotiorum, plate medium, read-out: growth inhibition grade S.s; for inhibition at 5 µg/mL: 5 mg/L; for inhibition at 50 µg/mL: 50 mg/L
# Method: (§1) In this Experimental Example, the fungicidal effects of the inventive compounds on various phytopathogenic fungi for plants and hazardous microorganism for industrial materials were examined by the methods described below. Each inventive compound was dissolved in 2 ml of dimethyl sulfoxide. 0.6 ml of this solution was added to 60 nil of a PDA medium (potato dextrose agar medium) at about 60 degrees C., which was mixed thoroughly in a 100-ml conical flask, and poured into a dish, where it was solidified, thereby obtaining a plate medium containing the inventive compound at 50 mg/L and 5 mg/L. On the other hand, a subject microorganism previously cultured on a plate medium was cut out using a cork borer whose diameter was 4 mm, and inoculated to the test compound-containing plate medium described above. […] The growth degree of the microorganism on the test compound-containing plate medium thus observed was compared with the growth degree of the microorganism in the untreated group, and % mycelial growth inhibition was calculated by the following equation. R=100(dc−dt)/dc wherein R=% mycelial extension inhibition, dc=flora diameter in untreated plate, dt=flora diameter in treated plate. The results obtained as described above were evaluated as one of the 5 grades according to the following criteria. […] Sclerotinia rot (Sclerotinia sclerotiorum) S.s
# Pyricularia oryzae = test: microbe, parasite or virus in culture; settings: Pyricularia oryzae, read-out: growth inhibition grade P.o
# [1] = system: Pseudocercoporella herpotrichoides; test: Plate medium fungicidal assay, wheat eye spot P.h (Experimental Example 5); settings: plate medium, read-out: growth inhibition grade P.h; for inhibition at 5 µg/mL: 5 mg/L; for inhibition at 50 µg/mL: 50 mg/L
# Method: as §1, with “Wheat eye spot (Pseudocercoporella herpotrichoides) P.h” for “Sclerotinia rot (Sclerotinia sclerotiorum) S.s”
# Rhynchosporium secalis = test: Plate medium fungicidal assay, barley leaf blotch R.sec (Experimental Example 5); settings: Rhynchosporium secalis, plate medium, read-out: growth inhibition grade R.sec; for inhibition at 5 µg/mL: 5 mg/L; for inhibition at 50 µg/mL: 50 mg/L
# Method: as §1, with “Barley leaf blotch (Rhynchosporium secalis) R.sec” for “Sclerotinia rot (Sclerotinia sclerotiorum) S.s”
# Fusarium graminearum = test: microbe, parasite or virus in culture; settings: Fusarium graminearum, read-out: growth inhibition grade F.g
# Botritis cinerea = test: Plate medium fungicidal assay, gray mold B.c (Experimental Example 5); settings: plate medium, read-out: growth inhibition grade B.c; for inhibition at 5 µg/mL: 5 mg/L; for inhibition at 50 µg/mL: 50 mg/L
# Method: as §1, with “Gray mold (Botritis cinerea) B.c” for “Sclerotinia rot (Sclerotinia sclerotiorum) S.s”
# Alternaria alternata = test: Plate medium fungicidal assay, Alternaria blotch A.m (Experimental Example 5); settings: Alternaria alternata, plate medium, read-out: growth inhibition grade A.m; for inhibition at 5 µg/mL: 5 mg/L; for inhibition at 50 µg/mL: 50 mg/L
# Method: as §1, with “Alternaria blotch (Alternaria alternata) A.m” for “Sclerotinia rot (Sclerotinia sclerotiorum) S.s”
structure (smiles),measurement,setting,value
"C[C@@]1(CCCl)CC[C@@H](Cc2ccc(Cl)cc2)[C@]1(O)Cn1cncn1 (racemic) [Compound I-104, (1RS,2SR,5SR)-5-(4-chlorobenzyl)-2-(2-chloroethyl)-2-methyl-1-(1H-1,2,4-triazol-1-ylmethyl)cyclopentanol]",inhibition at 5 µg/mL,Sclerotinia sclerotiorum,> 80%
same,inhibition at 50 µg/mL,Sclerotinia sclerotiorum,> 80%
same,inhibition at 5 µg/mL,Pyricularia oryzae,> 80%
same,inhibition at 50 µg/mL,Pyricularia oryzae,> 80%
same,inhibition at 5 µg/mL,[1],> 80%
same,inhibition at 50 µg/mL,[1],> 80%
same,inhibition at 5 µg/mL,Rhynchosporium secalis,> 80%
same,inhibition at 50 µg/mL,Rhynchosporium secalis,> 80%
same,inhibition at 5 µg/mL,Fusarium graminearum,> 80%
same,inhibition at 50 µg/mL,Fusarium graminearum,> 80%
same,inhibition at 5 µg/mL,Botritis cinerea,> 80%
same,inhibition at 50 µg/mL,Botritis cinerea,> 80%
same,inhibition at 5 µg/mL,Alternaria alternata,> 80%
same,inhibition at 50 µg/mL,Alternaria alternata,> 80%
"CC(Cl)=C[C@]1(C)CC[C@@H](Cc2ccc(Cl)cc2)[C@]1(O)Cn1cncn1 (racemic) [Compound I-115, (1RS,2SR,5SR)-5-(4-chlorobenzyl)-2-(2-chloropropenyl)-2-methyl-1-(1H-1,2,4-triazol-1-ylmethyl)cyclopentanol]",inhibition at 5 µg/mL,Sclerotinia sclerotiorum,> 80%
same,inhibition at 50 µg/mL,Sclerotinia sclerotiorum,> 80%
same,inhibition at 5 µg/mL,Pyricularia oryzae,> 80%
same,inhibition at 50 µg/mL,Pyricularia oryzae,> 80%
same,inhibition at 5 µg/mL,[1],> 80%
same,inhibition at 50 µg/mL,[1],> 80%
same,inhibition at 5 µg/mL,Rhynchosporium secalis,> 80%
same,inhibition at 50 µg/mL,Rhynchosporium secalis,> 80%
same,inhibition at 5 µg/mL,Fusarium graminearum,> 80%
same,inhibition at 50 µg/mL,Fusarium graminearum,> 80%
same,inhibition at 5 µg/mL,Botritis cinerea,> 80%
same,inhibition at 50 µg/mL,Botritis cinerea,> 80%
same,inhibition at 5 µg/mL,Alternaria alternata,> 80%
same,inhibition at 50 µg/mL,Alternaria alternata,> 80%
"C[C@]1(CCl)CC[C@@H](Cc2ccc(Cl)cc2)[C@]1(O)Cn1ccnc1 (racemic) [Compound I-244, (1RS,2SR,5SR)-5-(4-chlorobenzyl)-2-chloromethyl-2-methyl-1-imidazol-1-ylmethylcyclopentanol]",inhibition at 5 µg/mL,Sclerotinia sclerotiorum,> 80%
same,inhibition at 50 µg/mL,Sclerotinia sclerotiorum,> 80%
same,inhibition at 5 µg/mL,Pyricularia oryzae,> 80%
same,inhibition at 50 µg/mL,Pyricularia oryzae,> 80%
same,inhibition at 5 µg/mL,[1],> 80%
same,inhibition at 50 µg/mL,[1],> 80%
same,inhibition at 5 µg/mL,Rhynchosporium secalis,> 80%
same,inhibition at 50 µg/mL,Rhynchosporium secalis,> 80%
same,inhibition at 5 µg/mL,Fusarium graminearum,> 80%
same,inhibition at 50 µg/mL,Fusarium graminearum,> 80%
same,inhibition at 5 µg/mL,Botritis cinerea,60 to 80%
same,inhibition at 50 µg/mL,Botritis cinerea,> 80%
same,inhibition at 5 µg/mL,Alternaria alternata,> 80%
same,inhibition at 50 µg/mL,Alternaria alternata,> 80%
"C[C@]1(CCl)CC[C@H](Cc2ccc(Cl)cc2)[C@]1(O)Cn1cncn1 (racemic) [Compound I-301, (1RS,2SR,5RS)-5-(4-chlorobenzyl)-2-chloromethyl-2-methyl-1-[1,2,4]triazol-1-ylmethylcyclopentanol]",inhibition at 5 µg/mL,Sclerotinia sclerotiorum,> 80%
same,inhibition at 50 µg/mL,Sclerotinia sclerotiorum,> 80%
same,inhibition at 5 µg/mL,Pyricularia oryzae,> 80%
same,inhibition at 50 µg/mL,Pyricularia oryzae,> 80%
same,inhibition at 5 µg/mL,[1],> 80%
same,inhibition at 50 µg/mL,[1],> 80%
same,inhibition at 5 µg/mL,Rhynchosporium secalis,> 80%
same,inhibition at 50 µg/mL,Rhynchosporium secalis,> 80%
same,inhibition at 5 µg/mL,Fusarium graminearum,> 80%
same,inhibition at 50 µg/mL,Fusarium graminearum,> 80%
same,inhibition at 5 µg/mL,Botritis cinerea,> 80%
same,inhibition at 50 µg/mL,Botritis cinerea,> 80%
same,inhibition at 5 µg/mL,Alternaria alternata,> 80%
same,inhibition at 50 µg/mL,Alternaria alternata,> 80%
"O[C@]1(Cn2cncn2)[C@@H](Cc2ccc(Cl)cc2)CC[C@@H]1C(F)(F)F (racemic) [Compound I-365, (1RS,2SR,5RS)-5-(4-chlorobenzyl)-2-trifluoromethyl-1-(1H-1,2,4-triazol-1-ylmethyl)cyclopentanol]",inhibition at 5 µg/mL,Sclerotinia sclerotiorum,20 to 40%
same,inhibition at 50 µg/mL,Sclerotinia sclerotiorum,> 80%
same,inhibition at 5 µg/mL,Pyricularia oryzae,< 20%
same,inhibition at 50 µg/mL,Pyricularia oryzae,> 80%
same,inhibition at 5 µg/mL,[1],20 to 40%
same,inhibition at 50 µg/mL,[1],> 80%
same,inhibition at 5 µg/mL,Rhynchosporium secalis,20 to 40%
same,inhibition at 50 µg/mL,Rhynchosporium secalis,> 80%
same,inhibition at 5 µg/mL,Fusarium graminearum,20 to 40%
same,inhibition at 50 µg/mL,Fusarium graminearum,> 80%
same,inhibition at 5 µg/mL,Botritis cinerea,< 20%
same,inhibition at 50 µg/mL,Botritis cinerea,> 80%
same,inhibition at 5 µg/mL,Alternaria alternata,20 to 40%
same,inhibition at 50 µg/mL,Alternaria alternata,> 80%
"C[C@@]1(CCl)CC[C@H](Cc2ccc(Cl)cc2)[C@]1(O)Cn1cncn1 (racemic) [Compound I-401, (1RS,2RS,5RS)-5-(4-chlorobenzyl)-2-chloromethyl-2-methyl-1-[1,2,4]triazol-1-ylmethylcyclopentanol]",inhibition at 5 µg/mL,Sclerotinia sclerotiorum,> 80%
same,inhibition at 50 µg/mL,Sclerotinia sclerotiorum,> 80%
same,inhibition at 5 µg/mL,Pyricularia oryzae,> 80%
same,inhibition at 50 µg/mL,Pyricularia oryzae,> 80%
same,inhibition at 5 µg/mL,[1],> 80%
same,inhibition at 50 µg/mL,[1],> 80%
same,inhibition at 5 µg/mL,Rhynchosporium secalis,> 80%
same,inhibition at 50 µg/mL,Rhynchosporium secalis,> 80%
same,inhibition at 5 µg/mL,Fusarium graminearum,> 80%
same,inhibition at 50 µg/mL,Fusarium graminearum,> 80%
same,inhibition at 5 µg/mL,Botritis cinerea,> 80%
same,inhibition at 50 µg/mL,Botritis cinerea,> 80%
same,inhibition at 5 µg/mL,Alternaria alternata,60 to 80%
same,inhibition at 50 µg/mL,Alternaria alternata,> 80%
"C[C@]1(CBr)CC[C@@H](Cc2ccc(F)cc2)[C@]1(O)Cn1cncn1 (racemic) [Compound I-601, (1RS,2SR,5SR)-2-bromomethyl-5-(4-fluorobenzyl)-2-methyl-1-(1H-1,2,4-triazol-1-ylmethyl)cyclopentanol]",inhibition at 5 µg/mL,Sclerotinia sclerotiorum,> 80%
same,inhibition at 50 µg/mL,Sclerotinia sclerotiorum,> 80%
same,inhibition at 5 µg/mL,Pyricularia oryzae,> 80%
same,inhibition at 50 µg/mL,Pyricularia oryzae,> 80%
same,inhibition at 5 µg/mL,[1],60 to 80%
same,inhibition at 50 µg/mL,[1],> 80%
same,inhibition at 5 µg/mL,Rhynchosporium secalis,> 80%
same,inhibition at 50 µg/mL,Rhynchosporium secalis,> 80%
same,inhibition at 5 µg/mL,Fusarium graminearum,> 80%
same,inhibition at 50 µg/mL,Fusarium graminearum,> 80%
same,inhibition at 5 µg/mL,Botritis cinerea,60 to 80%
same,inhibition at 50 µg/mL,Botritis cinerea,> 80%
same,inhibition at 5 µg/mL,Alternaria alternata,60 to 80%
same,inhibition at 50 µg/mL,Alternaria alternata,> 80%
